Measurements as given in patent US20080254462A1, “ALTERED ZDHHC8 EXPRESSION AS A MARKER OF INCREASED RISK OF SCHIZOPHRENIA” (priority 2005, published 2008).

Tests used:
[1] = tested on: homozygous Zdhhc8 mutant mice and wild-type littermate controls; assay: Locomotor activating effects of MK801 in the open field; format: in vivo
Experimental: Open field assay. Animals were not pre-exposed to the chamber before testing. Activity was monitored in a clear acrylic chamber directly illuminated and equipped with infrared sensors for the automatic recording of horizontal and vertical activity (Colbourn Instruments). Each animal was placed initially in the periphery of the chamber, and recordings of the total distance traveled, the number of rearings (vertical moves) and the number of entries in the centerfield over the next 15 min were used as a measure of a locomotor response to novelty. 47 female mice (17 homozygous Zdhhc8 mutant, 17 heterozygous Zdhhc8 mutant and 13 wild-type littermate controls) and 45 male mice (13 homozygous Zdhhc8 mutant, 19 heterozygous Zdhhc8 mutant and 13 wild-type littermate controls) were tested.
Drug administration. MK801 was purchased from Sigma. Each experimental group consisted of 8-10 mice, which received the same number of injections, administered intraperitoneally, of either drug (0.4 mg per kg body weight) or vehicle. After 30 minutes of prehabituation in the open field, the mice were removed, injected and then left to rest for 10 minutes in their home cage before returning them to the open field arena, where they were monitored for an additional 30 minutes. […]

[2] = tested on: PSD95 (Post-Synaptic Density-95)

For `C[C@]12N[C@H](Cc3ccccc31)c1ccccc12` [MK801, dizocilpine], the “Sensitivity to MK801-induced stimulation of locomotor activity (ratio of activity after injection to activity before injection)” value ([1]; homozygous Zdhhc8 mutant female mice vs wild-type littermate controls, 0.4 mg per kg intraperitoneally, P=0.05, not in males) was “somewhat less sensitive to MK801-induced stimulation of locomotor activity than wild-type littermate controls” and the “Locomotor stimulation after MK801 injection” value ([1]; open field, 0.4 mg per kg body weight intraperitoneally, 30 minutes before and 30 minutes after injection, both genotypes, females and males) was “Locomotor stimulation after MK801 injection was observed in both genotypes in both females (E) and males (F)”.
With “ZDHHC8 mutant "230" (lacks the entire C-terminal domain)” the “metabolic labeling assay (palmitoylation of PSD95)” value [2] was “this form shows no essentially no activity when compared with vector-only control”.
